# Assay results: patent US20080076772A1, “Anti-Inflammatory Agents” (Pharma Mar S.A. Sociedad Unipersonal, priority 2004, published 2008)
# Read-outs that look alike come from different tables or passages of the source.
# How the values were obtained:
# [1] = test system: in vitro differentiated macrophages; assay: Cell viability of in vitro differentiated macrophages (PI staining, flow cytometry); format: cell-based, human
# Procedure: Apoptosis was detected by staining with AnnexinV and PI.
# We next studied the effect of ecteinascidin 743 on already differentiated macrophages obtained from monocytes cultured in vitro for 5 days with M-CSF. […] Monocytes were differentiated to macrophages by culture with M-CSF (20 ng/ml). At day 3, ecteinascidin 743 was added to cultures and incubated for 48 h. […] Similar results were obtained in other 4 experiments. In a series of 4 different experiments, IC50 for in vitro differentiated was 10 nM.
# We then tested the susceptibility to ecteinascidin 743 of macrophages classically activated by LPS and IFN gamma (or M1 macrophages) and alternatively activated by IL-4 (or M2 macrophages). In vitro differentiated macrophages were stimulated with LPS (100 ng/ml)+IFNgamma (500 UI:ml), Il-4 (20 ng/ml), in the presence or absence of ecteinascidin 743 for 48 h.
# [2] = test system: IL-6; assay: IL-6 production by LPS-stimulated monocytes (ELISA); format: cell-based; conditions: Homo sapiens, Monocyte; 5 nM, n=2; read-out: overall inhibition of IL-6 production, monocytes
# Procedure: Supernatants of untreated cells or cells treated with ecteinascidin 743 or other anti-neoplastic agents were collected after 24 h culture and frozen. Monocytes, macrophages and TAM were stimulated with 100 ng/ml LPS to induce maximal cytokine production. Determination of cytokines CCL2, TNF and IL-6 was measured by specific ELISA following the manufacturer's instructions.
# Monocytes and in vitro differentiated macrophages were stimulated with LPS (100 ng/ml). After 1 h LPS stimulation they were treated with ecteinascidin 743. After 16 h incubation, cell supernatants were harvested and tested in ELISA. Under these treatment conditions cell viability was usually >85% for concentrations up to 5 nM. […] Mean inhibition at 5 nM, for monocytes, was 65% (range 50-80%, n=5) and was 50% (range 25-75%, n=5) for in vitro differentiated macrophages. Results are mean+/−SE of 3-5 experiments
# We also tested two other cytokines, IL-6 and TNF, produced by macrophages and tumour cells, which have inflammatory properties and also act as growth factors for some tumours. IL-6 production was always reduced after ecteinascidin 743 treatment, with an overall inhibition at 5 nM of 54% (range 51-57%, n=2) and 69% (range 66-72%, n=2), in monocytes and macrophages, respectively (FIG. 6B). […]
# [3] = test system: IL-6; assay: Constitutive IL-6 production by freshly isolated ovarian tumour cells (ELISA); format: cell-based, human; conditions: 16 h
# Text: Tumour-associated macrophages (TAM) and tumour cells were isolated from the ascitic fluid of patients with diagnosed ovarian adenocarcinoma, admitted to the Clinic of Obstetrics and Gynecology of the University of Milan-Bicocca, S Gerardo Hospital. Cells contained in the ascitic fluid were centrifuged and isolated by differential density gradients of Ficoll and Percoll, and plastic adherence as previously described (see Allavena, P., Peccatori, F., Maggioni, D., Erroi, A., Sironi, M., Colombo, N., Lissoni, A., Galazka, A., Meiers, W., Mangioni, C., et al. Intraperitoneal recombinant gamma-interferon in patients with recurrent ascitic ovarian carcinoma: modulation of cytotoxicity and cytokine production in tumour-associated effectors and of major histocompatibility antigen expression on tumour cells. Cancer Res, 50: 7318-7323, 1990). Purity of TAM and tumour cell preparations was usually>65±10% as defined by morphology and phenotype analysis. Cells were treated with ecteinascidin 743 at the indicated concentrations and cultured for 1-5 days, as specified in figure legends. […]
# Monocytes, macrophages and TAM were stimulated with 100 ng/ml LPS to induce maximal cytokine production. Determination of cytokines CCL2, TNF and IL-6 was measured by specific ELISA following the manufacturer's instructions. […]
# [4] = test system: CCL2; assay: CCL2 production induced by exposure of monocytes to tumor cell supernatants; format: cell-based, human; conditions: Homo sapiens, Monocyte; for inhibition at 0.0025 µM: 2.5 nM; for inhibition at 0.005 µM: 5 nM
# Procedure: We also tested five other ecteinascidin compounds (Table 2) for their capacity to inhibit the production of CCL2 by human monocytes in vitro. […] The extent of inhibition of ET637 Derivative A was even more pronouced compared to ET743. In Table 2 is shown that the production of CCL2, induced by exposure of monocytes to tumor cell supernatants, is inhibited up to 80% and 97% at 2.5 and 5 nM, respectively, in two different donors. In the same experiment ET743 inhibited between 30% and 70%.
# [5] = read-out: % inhibition of CCL2 production, Donor A
# [6] = read-out: % inhibition of CCL2 production, Donor B
compound,measurement,setting,value
COc1cc2c(cc1O)CCN[C@]21CS[C@@H]2c3c(OC(C)=O)c(C)c4c(c3[C@H](COC1=O)N1[C@@H]2[C@H]2c3c(cc(C)c(OC)c3O)C[C@@H]([C@@H]1O)N2C)OCO4 [ecteinascidin 743],IC50,"[1]; Homo sapiens, Macrophage, drug added in the last 48 h, series of 4 experiments",10 nM
same,susceptibility of LPS-stimulated and IL-4-stimulated macrophages,"[1]; LPS 100 ng/ml + IFNgamma 500 UI/ml or IL-4 20 ng/ml, 48 h",susceptible to drug treatment similarly as non-stimulated macrophages
same,inhibition at 0.005 µM,[2],54%
same,constitutive production of IL-6 by freshly isolated tumour cells,[3],reduced
same,inhibition at 0.0025 µM,[4]; [5],30%
same,inhibition at 0.0025 µM,[4]; [6],60%
same,inhibition at 0.005 µM,[4]; [5],70%
same,inhibition at 0.005 µM,[4]; [6],70%
